Data: ChEMBL document CHEMBL1201862, “PubChem BioAssay data set” (2004)
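Interpolation was linear, between the two tested concentrations surrounding the appropriate level; five concentrations were tested over 48 hours in 96-well plates. GI50 is the concentration that inhibits growth by half.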 The source made the active and inactive calls. Cut-off read from the data, not from the text of the source: active = GI50 up to about 1.1 µM and inactive = higher.

Columns and labels:
Experiment in all cases: DTP human tumour cell line panel, 48 h
CCRF-CEM = tested on: CCRF-CEM
RPMI-8226 = tested on: RPMI-8226
SW-620 = tested on: SW-620
TK-10 = tested on: TK-10
LOX IMVI = tested on: LOX IMVI
786-0 = tested on: 786-0
OVCAR-4 = tested on: OVCAR-4
OVCAR-8 = tested on: OVCAR-8
SK-MEL-5 = tested on: SK-MEL-5
SK-OV-3 = tested on: SK-OV-3
MOLT-4 = tested on: MOLT-4
A549 = tested on: A549
SF-539 = tested on: SF-539
SK-MEL-28 = tested on: SK-MEL-28
HCT-116 = tested on: HCT-116
UACC-257 = tested on: UACC-257
UO-31 = tested on: UO-31

Measured: GI50

CC1CC2C(=O)N(c3ccccc3)C(=O)C2c2[nH]c3ccccc3c21 (stereo unspecified)
inactive: CCRF-CEM 35.6 µM | RPMI-8226 37.6 µM | SW-620 > 100 µM | TK-10 85.7 µM | LOX IMVI 45.5 µM | 786-0 50.2 µM | OVCAR-4 41.8 µM | OVCAR-8 59.3 µM | SK-MEL-5 > 100 µM | SK-OV-3 14.2 µM | MOLT-4 28.4 µM | A549 94 µM | SF-539 38.8 µM | SK-MEL-28 58.9 µM

Cc1ccc(S(=O)(=O)N2CCC3(C(/C=C/c4ccccc4)=Nc4ccccc43)C2c2ccccc2)cc1 (stereo unspecified)
inactive: CCRF-CEM > 100 µM | RPMI-8226 > 100 µM | SW-620 1.52 µM | TK-10 > 100 µM | LOX IMVI > 100 µM | 786-0 > 100 µM | OVCAR-4 > 100 µM | HCT-116 > 100 µM | UACC-257 > 100 µM | OVCAR-8 > 100 µM | SK-MEL-5 > 100 µM | SK-OV-3 > 100 µM | UO-31 61.7 µM | A549 > 100 µM | SF-539 > 100 µM | SK-MEL-28 > 100 µM

N#C/C(=C1\OC(=N)C(c2ccc(Cl)cc2)=C1O)c1ccc(Cl)cc1
inactive: CCRF-CEM 12.8 µM | RPMI-8226 19 µM | SW-620 13.2 µM | TK-10 26.4 µM | LOX IMVI 16 µM | 786-0 16 µM | OVCAR-4 15.9 µM | HCT-116 17.3 µM | UACC-257 15 µM | OVCAR-8 13.5 µM | SK-OV-3 37.8 µM | MOLT-4 17.3 µM | UO-31 16.2 µM | A549 20.5 µM | SF-539 14.5 µM | SK-MEL-28 26.5 µM

COC(=O)OCC1OC(N2C(=O)NC(=O)C(Br)C2N=[N+]=[N-])CC1OC(=O)OC (stereo unspecified)
inactive: CCRF-CEM > 100 µM | RPMI-8226 > 100 µM | SW-620 > 100 µM | TK-10 > 100 µM | LOX IMVI > 100 µM | 786-0 > 100 µM | OVCAR-4 > 100 µM | HCT-116 > 100 µM | UACC-257 > 100 µM | OVCAR-8 > 100 µM | SK-MEL-5 > 100 µM | SK-OV-3 > 100 µM | UO-31 > 100 µM | A549 > 100 µM | SF-539 > 100 µM | SK-MEL-28 > 100 µM

CC(=O)OC[C@]1(O)CC[C@@]23CC1C[C@@H]2CCC1C(C)(C)CCC[C@@]13C (stereo partly specified)
inactive: CCRF-CEM 10.1 µM | RPMI-8226 9.23 µM | SW-620 10.7 µM | TK-10 13.4 µM | LOX IMVI 11.1 µM | 786-0 17.3 µM | OVCAR-4 15.9 µM | HCT-116 11.9 µM | UACC-257 15.8 µM | OVCAR-8 16.6 µM | SK-MEL-5 15 µM | SK-OV-3 15.2 µM | MOLT-4 1.77 µM | UO-31 16.1 µM | A549 15.8 µM | SF-539 16.4 µM | SK-MEL-28 14.8 µM

COC(=O)C1[C@@H](C(=O)OC)C(=O)O[C@H]1c1cc(OC)c(OC)c(OC)c1 (stereo partly specified)
inactive: CCRF-CEM > 100 µM | RPMI-8226 > 100 µM | SW-620 > 100 µM | TK-10 > 100 µM | LOX IMVI > 100 µM | 786-0 > 100 µM | OVCAR-4 > 100 µM | HCT-116 > 100 µM | UACC-257 > 100 µM | OVCAR-8 > 100 µM | SK-MEL-5 > 100 µM | SK-OV-3 > 100 µM | MOLT-4 > 100 µM | UO-31 > 100 µM | A549 > 100 µM | SF-539 > 100 µM | SK-MEL-28 > 100 µM
